In patent US7767398B2, “Means and methods for diagnosing and treating affective disorders” (Affectis Pharmaceuticals AG, priority 2003, dated 2010):

Assays:
[1] = molecular target: T1, human P2X7R (Homo sapiens, UniProt Q99572); assay: Calcium entry in HT-22 cells overexpressing human P2X7R (Fluo-4 AM); format: cell-based; settings: 20 μM BzATP or 50 μM tenidap
T1 construct: expressed in transfected cells
T1 sequence (Q99572 1-595): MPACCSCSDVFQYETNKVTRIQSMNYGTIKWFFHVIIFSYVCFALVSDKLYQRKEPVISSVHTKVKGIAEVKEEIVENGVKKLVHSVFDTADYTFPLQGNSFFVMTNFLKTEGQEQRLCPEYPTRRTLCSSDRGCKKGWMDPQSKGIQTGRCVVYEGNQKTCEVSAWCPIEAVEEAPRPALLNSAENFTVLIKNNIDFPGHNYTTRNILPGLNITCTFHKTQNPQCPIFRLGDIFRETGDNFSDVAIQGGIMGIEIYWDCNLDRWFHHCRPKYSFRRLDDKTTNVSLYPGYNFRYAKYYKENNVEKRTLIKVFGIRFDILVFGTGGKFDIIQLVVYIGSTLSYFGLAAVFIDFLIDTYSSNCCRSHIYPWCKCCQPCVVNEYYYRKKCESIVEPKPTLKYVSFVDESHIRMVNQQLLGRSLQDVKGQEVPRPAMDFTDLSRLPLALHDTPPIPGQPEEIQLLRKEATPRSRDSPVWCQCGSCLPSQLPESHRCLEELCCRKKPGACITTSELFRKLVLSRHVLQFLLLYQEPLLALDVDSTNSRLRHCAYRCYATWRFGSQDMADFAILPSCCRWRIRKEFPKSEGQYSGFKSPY
From the text: Yet another method for identifying P2X7R agonists was devised by generating a immortalised mouse cell line that overexpresses the human P2X7R gene under the control of the human cytomegalovirus (CMV) early promoter/enhancer region. The human P2X7R cDNA was inserted into the pcDNA3.1 vector (Invitrogen) and transfected into the mouse hippocampal cell line HT-22 using Lipofectamine (Invitrogen) according to the manufacturer's specifications. One day after transfection, culture medium containing 500 μg/ml G418 was added to the cells. Resistant clones were separately isolated and cultured 14 days after applying the selection medium.
The agonistic activity of a compound was evaluated by measuring calcium entry in the cells that overexpress the human P2X7R. Cells were cultured in 96 well plates and incubated at 37° C. with 5% C02 DMEM with 10% foetal calf serum (Gibco) until they reached confluence. Cells were then loaded for one hour with 10 μM of Fluo4 AM (Molecular Probes). Fluo-4 AM is a fluorescent dye that binds to intracellular calcium. […] Agonist activity was detected by measuring an increase in calcium influx which results in increased binding to Fluo4 AM and increased fluorescence. Changes in fluorescence signal are measured using a Fluostar Optima plate reader (BMG biotech). […] Thus, both compound stimulated the activity of P2X7R which results in an influx of ions into the cells.

[2] = test system: mice; assay: Open field test (locomotor activity); settings: 50 μM BzATP, 24 hours after injection, vs vehicle
Procedure: Locomotor activity was monitored for a period of 30 minutes using a video camera. Overall distance traveled by the animals during the testing period was then analysed by means of VideoMot2 computer software (TSE GmbH, Bad Homburg).

Substance: 2′-3′-O-(4-Benzoylbenzoyl)adenosine 5′-triphosphate [BzATP]
- calcium influx (Fluo-4 AM fluorescence intensity) [1]: rapid increase in fluorescence intensity
- locomotor activity (overall distance traveled, 30 minutes) [2]: No difference in locomotor activity
